The source of these data is PMC11763264, “Antibacterial and Antifungal Activities of Linear and Cyclic Peptides Containing Arginine, Tryptophan, and Diphenylalanine” (Antibiotics, 2025).

In data set [1] the test system is E. faecalis (ATCC 29212). The experiment in a line: microbe, parasite or virus in culture. Type of data set: cell-based, Enterococcus faecalis. Conditions: ATCC 29212, 24 h. How it is done: The antibacterial activity of all ten synthesized linear and cyclic peptides was evaluated against MRSA (ATCC BAA-1556), S. aureus (ATCC 29213), E. faecium (ATCC 700221), S. pneumoniae (ATCC 51938), E. faecalis (ATCC 29212), B. subtilis (ATCC-6633), K. pneumoniae (ATCC BAA-1705), P. aeruginosa (ATCC 27883), and E. coli (ATCC 25922). Meropenem and daptomycin were used as positive controls for this study. Certain peptides are marked as “NT” (not tested) against specific bacterial strains based on initial screening data. […] The MIC was determined by micro-broth dilution protocol, where the minimal concentrations were determined to be in wells with no visible bacterial growth.
All bacterial experiments were carried out in a laminar flow hood (Labconco, Kansas City, MO, USA). The bacterial strains were cultured following the guidelines set by the Clinical Laboratory Standards Institute (CLSI). Antibacterial assays were performed using a standard microtiter dilution method as described in previous studies. The minimum inhibitory concentration (MIC) refers to the lowest peptide concentration that inhibits bacterial growth in wells with no visible bacterial growth. MIC was determined by micro-broth dilution. Bacteria were cultured overnight in 6 mL of Luria Broth (LB). A stock solution of the peptide was prepared in water and DMSO, and a test compound solution with a concentration of 256 µg/mL was made in LB. Meropenem, with a solubility of 8 mg/mL, was prepared as a stock solution at 4 mg/500 µL. An aliquot of the overnight bacteria culture was diluted in normal saline (NS, 1 mL) until achieving a 0.5 McFarland turbidity (1.5 × 10^8 bacterial cell CFU/mL). A 0.5 McFarland compared solution (60 µL) was added to Mueller Hinton Broth (MH) 8940 µL to generate a 1/150 dilution. A 200 µL test compound solution was added to the first well of a 96-well plate, and the remaining wells (2–12) were filled with 100 µL of MH media using a multi-channel pipette from a sterile reservoir. A concentration of […] of the tested peptides was prepared from a stock solution of the samples for testing in Muller−Hinton broth MH media. Peptides stock solution was dissolved in 5% DMSO in water, and the final concentration of DMSO in the first well of assay plate was 2.5% DMSO/H2O and diluted across the assay plate.
A 100 µL sample from well 1 was pipetted into well 2, and the solution was mixed thoroughly by pipetting up and down. Next, 100 µL was transferred from well 2 to well 3, followed by thorough mixing. This 2-fold serial dilution process continued through well 11, with no additions made to well 12. The final 100 µL from well 11 was discarded. After completing the serial dilution, each well (1–12) contained 100 µL of solution. The bacterial culture in MH media was vortexed and transferred to a sterile reservoir, from which 100 µL was added to each well using a 12-channel pipette. (Note: The dilutions were further diluted upon adding the bacterial solution; for example, the concentration in well 1 started at […] after the addition of the bacterial culture.) The plates were incubated overnight at 37 °C for 24 h. All experiments were performed in triplicate and repeated twice, with controls consisting of bacteria in MH media and positive controls of daptomycin or meropenem.

For data set [2], the system named is MES-SA cells. As to conditions: cited from earlier work. The text has this: (§1) We have previously reported in vitro cytotoxicity of the synthesized peptides in a range of mammalian cell lines, including human ovarian adenocarcinoma cells (SK-OV-3), human peripheral blood lymphoblast cells (CCRF-CEM), healthy human embryonic kidney cells (HEK-293), human mammary adenocarcinoma cells (MDA-MB-468), normal pig kidney epithelial cells (LLC-PK1), and human uterine sarcoma fibroblast cells (MES-SA).

Data set [3] relates to LLC-PK1 cells. As to conditions: cited from earlier work.
Description: as §1

Data set [4] has as its system MDA-MB-468 cells. As to conditions: cited from earlier work.
Description: as §1

The subject of data set [5] is C. albicans (ATCC 60193). The data set can be described thus: microbe, parasite or virus in culture. In kind it is cell-based, Candida albicans. As to conditions: ATCC 60193, 24 h.
Data set [6] concerns C. parapsilosis and A. fumigatus. In kind it is cell-based. Conditions: span over the two fungi. As to the method: The antifungal activity of all ten synthesized linear and cyclic peptides was evaluated against C. albicans (ATCC 60193), C. parapsilosis (ATCC 22019), and A. fumigatus (AF-293). Fluconazole and amphotericin B were used as positive controls for this study. The MIC was determined at concentrations in wells with no visible fungal growth.
A. fumigatus (Af-293) was cultured on Sabouraud dextrose agar (SDA) (Lot #3431660, Oxoid) for 48–72 h at 35 °C to obtain fresh and mature colonies which reached the proper sporulation then used to prepare the inoculum. The colonies were covered with Phosphate-Buffered Saline (PBS) containing 0.025% Tween-20, scraped from the plate, and carefully collected into a sterile tube. The suspension was centrifuged at 3000 RPM for 5 min after the separation between conidia and hyphae. […]
Peptide concentrations of 50, 25, 12.5, 6.25, and 3.1 μg/mL were tested in triplicate. […] Fungal growth was visualized, and the minimum inhibitory concentration (MIC) was determined as the lowest peptide concentration, where no growth was observed. […]
Peptide concentrations of 50, 25, 12.5, 6.25, and 3.1 μg/mL were tested in triplicate and repeated twice. […] Fungal and microbial growth were visually observed in the control wells, and the minimum inhibitory concentration (MIC) was determined as the lowest concentration at which no growth was detected in the wells. […]

≈ marks a conversion by molar mass, not a printed value. Where “and” joins values, the source holds several entries; their conditions need not be identical. Identical values can stand only once. Non-standard residues stand in square brackets, D forms with d. Residues, ends and D or L forms follow the SMILES beside them. Dip = N[C@H](C(=O)O)C(c1ccccc1)c1ccccc1

As to `N=C(N)NCCC[C@@H]1NC(=O)[C@H](C(c2ccccc2)c2ccccc2)NC(=O)[C@H](CCCNC(=N)N)NC(=O)[C@H](C(c2ccccc2)c2ccccc2)NC(=O)[C@H](CCCNC(=N)N)NC(=O)[C@H](C(c2ccccc2)c2ccccc2)NC(=O)[C@H](CCCNC(=N)N)NC(=O)[C@H](C(c2ccccc2)c2ccccc2)NC(=O)[C@H](CCCNC(=N)N)NC(=O)[C@H](C(c2ccccc2)c2ccccc2)NC1=O` [[DipR]5] (cyclo([Dip]R[Dip]R[Dip]R[Dip]R[Dip]R)), the MIC in data set [1] is given as 0.78 µM (≈ 1.48 µg/mL); in data set [5], 13.1 µM (≈ 24.9 µg/mL). Also, in data set [2], the “cytotoxicity against MES-SA cells” value is given as “moderate effects”. For the same compound, the “cytotoxicity against LLC-PK1 cells” value in data set [3] is reported as “reduced cytotoxicity”. Also, the “cytotoxicity against MDA-MB-468 cells” value in data set [4] was “reduced cytotoxicity”. Besides, the “MIC values against C. parapsilosis and A. fumigatus” value in data set [6] was 1.6–6.6 µM and 3.0–12.5 µg/mL.
